Test results from patent US9205098B2, “Anti-cancer therapies” (Threshold Pharmaceuticals, Inc., priority 2004, dated 2015).

What was measured:
[1] = test system: tumors derived from HS766-T human pancreatic cancer cells; assay: HS766-T human pancreatic cancer tumor model in mice; type: in vivo, female NMRI nu/nu mice
Method: (§1) A combination of glufosfamide and gemcitabine was administered daily for 7 days to female NMRI nu/nu mice that were carrying tumors derived from HS766-T or As-PC-1 human pancreatic cancer cells. Mice were administered doses of vehicle control (0.9% sodium chloride solution, i.v.), gemcitabine (i.p.), glufosfamide (i.v.) or gemcitabine/glufosfamide combinations once daily for 7 consecutive days. A dose of 1.25 mg/kg was used as the standard dose for gemcitabine throughout the study.

[2] = test system: tumors derived from As-PC-1 human pancreatic cancer cells; assay: As-PC-1 human pancreatic cancer tumor model in mice; type: in vivo, female NMRI nu/nu mice; conditions: glufosfamide i.v., gemcitabine i.p., alone or in combination, once daily for 7 days
Method: as §1

[3] = test system: tumors derived from type MiPaca2 human pancreatic cancer cells; assay: MiPaca2 human pancreatic cancer tumor model in nude mice; type: in vivo
Method: A combination of glufosfamide and gemcitabine was administered to nude mice that were carrying tumors derived from type MiPaca2 human pancreatic cancer cells. Mice were administered doses of vehicle control, gemcitabine, glufosfamide, or gemcitabine/glufosfamide combinations as tabulated in Table 1 below (10 mice/group). Glufosfamide was administered i.v., daily for 14 days (Groups 1-4 and 7-12). Gemcitabine was administered at 300 mg/kg, i.p., once a week for three weeks (Groups 6 and 10-12). Gemcitabine was administered at 150 mg/kg, i.p., twice a week for three weeks (Groups 5 and 7-9).

[4] = test system: pancreatic cancer cell lines; conditions: in vitro; cited from earlier work
[5] = test system: advanced pancreatic cancer; conditions: patients with advanced pancreatic cancer; cited from earlier work

Row | Structure (SMILES) | inhibitory effect on tumor progression ([1]; gemcitabine alone 1.25 mg/kg i.p. once daily for 7 days) | inhibitory effect on tumor growth [2] | onset of tumor growth compared with gemcitabine alone or vehicle control ([1]; glufosfamide 10 mg/kg i.v. once daily for 7 days) | reduction in tumor size ([3]; Group 3: glufosfamide 30 mg/kg i.v. daily for 14 days) | reduction in tumor size ([3]; Group 4: glufosfamide 100 mg/kg i.v. daily for 14 days) | activity against pancreatic cancer cell lines [4] | activity in patients [5]
1 | Nc1ccn([C@@H]2O[C@H](CO)[C@@H](O)C2(F)F)c(=O)n1 [gemcitabine, 2′-deoxy-2′,2′-difluoro-cytidine] | only a marginal inhibitory effect | no apparent inhibitory effect on tumor growth |  |  |  |  | 
2 | O=P(NCCCl)(NCCCl)O[C@@H]1O[C@H](CO)[C@@H](O)[C@H](O)[C@H]1O [glufosfamide, β-D-glucosyl-ifosfamide mustard] |  | no apparent inhibitory effect on tumor growth | dramatic delay in the onset of tumor growth | modest reduction in tumor size | modest reduction in tumor size |  | 
3 | Nc1nc2[nH]cc(CCc3ccc(C(=O)N[C@@H](CCC(=O)O)C(=O)O)cc3)c2c(=O)[nH]1 [pemetrexed] |  |  |  |  |  | active | has shown activity
